In ChEMBL document CHEMBL1201862, “PubChem BioAssay data set” (2004):
Calls of active or inactive are those of the source. Unless noted, no cut-off for these calls is given here.

Columns and labels:
[1] = target: T1, Short transient receptor potential channel 4 (Mus musculus, UniProt Q9QUQ5); experiment: SAR Analysis for the identification of selective inhibits of the transient receptor potential cation channel C4 (TRPC4): Automated Electrophysiology. [Related pubchem assays (depositor defined):AID2256]; format: functional
T1 sequence (Q9QUQ5 whole entry): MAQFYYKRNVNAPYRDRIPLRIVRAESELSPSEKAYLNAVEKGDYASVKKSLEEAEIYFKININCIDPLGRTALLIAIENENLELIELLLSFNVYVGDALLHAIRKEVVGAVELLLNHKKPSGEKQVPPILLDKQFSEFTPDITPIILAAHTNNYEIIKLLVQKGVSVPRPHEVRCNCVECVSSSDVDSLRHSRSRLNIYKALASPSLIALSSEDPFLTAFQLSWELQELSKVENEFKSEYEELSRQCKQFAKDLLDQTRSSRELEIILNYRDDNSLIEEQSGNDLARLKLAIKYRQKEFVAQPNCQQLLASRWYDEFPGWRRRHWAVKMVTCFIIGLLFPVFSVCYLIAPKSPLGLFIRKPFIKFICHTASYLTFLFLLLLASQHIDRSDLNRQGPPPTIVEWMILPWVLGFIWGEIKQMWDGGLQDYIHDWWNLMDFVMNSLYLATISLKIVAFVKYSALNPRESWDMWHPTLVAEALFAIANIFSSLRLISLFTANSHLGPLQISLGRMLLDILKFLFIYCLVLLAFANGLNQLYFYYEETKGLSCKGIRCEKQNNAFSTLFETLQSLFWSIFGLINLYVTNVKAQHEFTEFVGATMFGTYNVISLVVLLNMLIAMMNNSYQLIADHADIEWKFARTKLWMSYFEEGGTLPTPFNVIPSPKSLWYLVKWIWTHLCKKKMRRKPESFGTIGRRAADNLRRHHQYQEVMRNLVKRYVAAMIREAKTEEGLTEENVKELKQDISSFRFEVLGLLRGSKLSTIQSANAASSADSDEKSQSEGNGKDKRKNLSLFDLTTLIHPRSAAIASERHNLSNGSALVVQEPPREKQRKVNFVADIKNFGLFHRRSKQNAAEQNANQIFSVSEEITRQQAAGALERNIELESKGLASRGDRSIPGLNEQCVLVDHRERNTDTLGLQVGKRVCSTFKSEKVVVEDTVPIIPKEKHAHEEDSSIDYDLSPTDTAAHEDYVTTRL

[2] = target: Short transient receptor potential channel 6 (Mus musculus, UniProt Q61143); experiment: TRPC6 inhibition potency of TRPC4 inhibitor analogs, dose response, selectivity assay for selective TRPC4 inhibitor project, HEK293 cells, membrane potential dye, IC50 (AID 492987); format: functional, cell-based
[3] = target: T1, Short transient receptor potential channel 4; experiment: TRPC4 inhibitor concentration-response, dose response, cell-based, HEK293 TRPC4/mu-opioid, DAMGO stimulus, Fluo-4 (AID 492994); format: functional
[4] = Late-stage probe development counterscreen for inhibitors of the Hepatitis C Virus non-structural protein 3 helicase (NS3): luminescence-based cell-based dose response assay to determine whether compounds that inhibit replication of HCV RNA replicon are cytotoxic. [Related pubchem assays (depositor defined):AID1800, AID1830, AID1845, AID1943, AID1945, AID2172, AID2173, AID2474, AID2476]; format: functional
NS3 = NS3 (Hepatitis C virus, UniProt A3EZJ3); experiment: PubChem AID 2173; parameters: species or system Hepacivirus hominis
CHO-K1 = experiment: (§1) Counterscreen for antagonists of the orexin 1 receptor (OX1R; HCRTR1): Homogeneous time resolved fluorescence (HTRF)-based cell-based dose response assay to identify antagonists of the parental CHO-K1 cell line. [Related pubchem assays (depositor defined):AID434989, AID435008, AID463079, AID485270, AID492963, AID492964, AID492965, AID493232, AID504699, AID504701]; format: functional; details: Cricetulus griseus
[5] = cytotoxicity toward DRD oncogenic fibroblasts, dose response, cell-based, non-viral oncogenic, luminescence (AID 1934); format: functional; details: Homo sapiens
[6] = target: T2, Orexin/Hypocretin receptor type 1 (Homo sapiens, UniProt O43613); experiment: Homogeneous Time Resolved Fluorescence (HTRF)-based cell-based high throughput dose response assay for antagonists of the orexin 1 receptor (OX1R; HCRTR1). [Related pubchem assays (depositor defined):AID434989, AID435008, AID463079, AID485270, AID492963, AID492964, AID492965, AID493232, AID504717, AID504718]; format: functional
Orexin receptor type 2 [7] = target: T3, Orexin receptor type 2 (Homo sapiens, UniProt O43614); experiment: Counterscreen assay for antagonists of the orexin 1 receptor (OX1R; HCRTR1): Homogeneous Time Resolved Fluorescence (HTRF)-based cell-based dose response assay for antagonists of the orexin 2 receptor (OX2R; HCRTR2), run by assay provider.; format: functional
BJ [8] = experiment: cytotoxicity toward BJ-TERT-LT-ST fibroblasts, dose response, cell-based, RAS-independent, luminescence (AID 1935); format: functional; details: Homo sapiens;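 note: BJ fibroblasts immortalized with TERT plus LT and ST oncogenes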
BJ [9] = experiment: cytotoxicity toward BJ-TERT fibroblasts, dose response, cell-based, RAS-independent, luminescence (AID 1933); format: functional; details: Homo sapiens
[10] = Vero cell cytotoxicity, dose response, cytotoxicity control for Vif-APOBEC3G degradation inhibitor project, Vero cells (AID 1117358); format: functional; details: Human immunodeficiency virus 1, Vero
Orexin receptor type 2 [11] = target: T3, Orexin receptor type 2; experiment: Counterscreen assay for antagonists of the orexin 1 receptor (OX1R; HCRTR1): Fluorescence-based cell-based dose response assay for antagonists of the orexin 2 receptor (OX2R; HCRTR2), run by assay provider.; format: functional
BJ [12] = experiment: cells; format: functional, cell-based; details: Homo sapiens
[13] = target: T2, Orexin/Hypocretin receptor type 1; experiment: Fluorescence-based cell-based high throughput dose response assay for antagonists of the orexin 1 receptor (OX1R; HCRTR1). [Related pubchem assays (depositor defined):AID434989, AID435008, AID463079, AID485270, AID492963, AID492964, AID492965, AID493232, AID504717, AID504718]; format: functional
[14] = as §1, with “Fluorescence-based” for “Homogeneous time resolved fluorescence (HTRF)-based”, “cell-based high throughput” for “cell-based”, “CHO” for “CHO-K1”; format: functional
MDCK [15] = experiment: antiviral activity against H1N1 influenza, dose response, cell-based, strain KY136 (AID 540257); format: functional; details: Canis lupus familiaris
Vero = experiment: Vero E6 cell cytotoxicity, dose response, cytotoxicity control (AID 540298); format: functional; details: Chlorocebus sabaeus
MDCK [16] = experiment: MDCK cell cytotoxicity, dose response, cytotoxicity control (AID 540296); format: functional; details: Canis lupus familiaris
Keap1/Nrf2 = Keap1/Nrf2 (Homo sapiens, UniProt Q14145); experiment: Keap1-Nrf2 protein-protein interaction inhibitors, dose response, biochemical, fluorescence polarization, cherry-picked samples (AID 588683)
NIH3T3 = experiment: cytotoxicity in NIH-3T3 fibroblasts, dose response, cytotoxicity control for antifungal drug resistance project, cell-based, Alamar Blue, fluconazole, dry powder (AID 488809); format: functional; details: Mus musculus
Candida albicans [17] = experiment: growth inhibition of resistant C. albicans, dose response, CaCi-8, fluconazole, Alamar Blue, dry powder (AID 488807); format: functional, organism-based
Candida albicans [18] = experiment: growth inhibition of resistant C. albicans, dose response, CaCi-8 strain, fluconazole, dry powder, set 4 (AID 488950); format: functional, organism-based

T2 sequence (O43613 whole entry): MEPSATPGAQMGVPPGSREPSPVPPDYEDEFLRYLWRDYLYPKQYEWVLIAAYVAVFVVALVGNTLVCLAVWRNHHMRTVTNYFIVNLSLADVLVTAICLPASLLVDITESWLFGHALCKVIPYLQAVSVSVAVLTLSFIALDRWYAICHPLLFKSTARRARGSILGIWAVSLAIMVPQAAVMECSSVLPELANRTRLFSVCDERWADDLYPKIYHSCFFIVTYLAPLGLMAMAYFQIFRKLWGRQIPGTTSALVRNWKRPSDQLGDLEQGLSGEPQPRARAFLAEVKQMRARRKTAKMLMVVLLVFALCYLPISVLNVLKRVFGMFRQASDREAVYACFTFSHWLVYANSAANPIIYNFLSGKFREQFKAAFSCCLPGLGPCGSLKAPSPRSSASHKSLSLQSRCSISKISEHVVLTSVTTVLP
T3 sequence (O43614 whole entry): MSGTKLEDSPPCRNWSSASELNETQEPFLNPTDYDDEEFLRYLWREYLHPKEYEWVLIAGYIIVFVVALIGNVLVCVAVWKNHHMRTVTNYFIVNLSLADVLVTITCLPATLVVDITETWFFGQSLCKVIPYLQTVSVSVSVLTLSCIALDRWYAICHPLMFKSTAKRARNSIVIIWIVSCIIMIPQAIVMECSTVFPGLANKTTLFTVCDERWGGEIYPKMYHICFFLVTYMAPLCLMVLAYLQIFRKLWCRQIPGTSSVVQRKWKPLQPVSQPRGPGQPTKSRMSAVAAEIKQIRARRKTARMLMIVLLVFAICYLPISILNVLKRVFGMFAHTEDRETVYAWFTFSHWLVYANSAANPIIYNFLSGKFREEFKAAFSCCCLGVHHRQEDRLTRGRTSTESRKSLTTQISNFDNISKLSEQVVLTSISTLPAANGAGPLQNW
Sequence of NS3 (A3EZJ3 whole entry): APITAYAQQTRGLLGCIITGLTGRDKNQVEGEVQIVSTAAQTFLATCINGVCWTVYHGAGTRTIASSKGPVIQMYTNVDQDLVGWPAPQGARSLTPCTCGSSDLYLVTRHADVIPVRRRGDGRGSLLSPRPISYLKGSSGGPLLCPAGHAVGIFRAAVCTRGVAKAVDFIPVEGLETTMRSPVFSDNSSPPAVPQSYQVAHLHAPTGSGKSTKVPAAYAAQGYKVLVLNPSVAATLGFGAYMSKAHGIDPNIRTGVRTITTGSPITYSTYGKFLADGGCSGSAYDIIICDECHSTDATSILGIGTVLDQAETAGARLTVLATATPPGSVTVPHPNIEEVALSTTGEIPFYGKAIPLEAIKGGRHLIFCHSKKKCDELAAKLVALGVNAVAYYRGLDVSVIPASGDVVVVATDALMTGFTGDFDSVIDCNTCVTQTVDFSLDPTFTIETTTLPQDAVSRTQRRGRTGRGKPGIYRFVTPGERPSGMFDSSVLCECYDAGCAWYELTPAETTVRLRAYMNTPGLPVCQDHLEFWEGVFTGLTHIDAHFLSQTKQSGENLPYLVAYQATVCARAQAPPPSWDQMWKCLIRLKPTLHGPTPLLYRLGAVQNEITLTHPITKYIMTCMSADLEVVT
Sequence of Keap1/Nrf2 (Q16236 whole entry): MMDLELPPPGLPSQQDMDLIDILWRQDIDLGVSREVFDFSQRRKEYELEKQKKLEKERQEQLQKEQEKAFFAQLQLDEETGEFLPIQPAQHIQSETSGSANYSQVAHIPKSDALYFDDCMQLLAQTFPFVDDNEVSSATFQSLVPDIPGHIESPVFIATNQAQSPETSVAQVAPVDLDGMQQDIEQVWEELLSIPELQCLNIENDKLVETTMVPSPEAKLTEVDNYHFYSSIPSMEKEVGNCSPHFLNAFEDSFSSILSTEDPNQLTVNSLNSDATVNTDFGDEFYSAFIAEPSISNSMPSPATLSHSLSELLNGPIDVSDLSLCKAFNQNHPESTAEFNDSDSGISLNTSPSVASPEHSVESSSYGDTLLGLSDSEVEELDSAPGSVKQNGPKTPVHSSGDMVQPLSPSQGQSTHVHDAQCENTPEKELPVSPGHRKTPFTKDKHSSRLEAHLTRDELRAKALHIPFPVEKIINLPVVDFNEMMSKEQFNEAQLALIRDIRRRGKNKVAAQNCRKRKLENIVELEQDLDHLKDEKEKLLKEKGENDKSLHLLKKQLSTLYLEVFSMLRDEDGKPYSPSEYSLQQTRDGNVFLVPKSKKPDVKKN
Sequence of Keap1/Nrf2 (Q14145 whole entry): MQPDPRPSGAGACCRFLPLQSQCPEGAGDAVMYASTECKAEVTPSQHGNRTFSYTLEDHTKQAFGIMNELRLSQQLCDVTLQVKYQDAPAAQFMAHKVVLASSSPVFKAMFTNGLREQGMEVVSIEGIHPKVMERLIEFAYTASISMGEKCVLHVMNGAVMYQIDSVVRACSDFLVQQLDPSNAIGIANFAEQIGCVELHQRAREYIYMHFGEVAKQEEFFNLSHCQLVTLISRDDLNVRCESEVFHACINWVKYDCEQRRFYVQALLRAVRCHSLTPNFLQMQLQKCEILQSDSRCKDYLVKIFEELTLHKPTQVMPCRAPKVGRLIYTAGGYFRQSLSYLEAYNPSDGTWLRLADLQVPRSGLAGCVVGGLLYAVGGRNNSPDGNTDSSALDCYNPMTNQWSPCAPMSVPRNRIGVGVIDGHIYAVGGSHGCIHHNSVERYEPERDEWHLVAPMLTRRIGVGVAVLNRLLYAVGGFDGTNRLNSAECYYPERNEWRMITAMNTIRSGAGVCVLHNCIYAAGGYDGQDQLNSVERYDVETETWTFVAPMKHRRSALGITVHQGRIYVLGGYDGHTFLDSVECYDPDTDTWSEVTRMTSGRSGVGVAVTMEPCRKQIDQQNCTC
Sequence of Short transient receptor potential channel 6 (Q61143 whole entry): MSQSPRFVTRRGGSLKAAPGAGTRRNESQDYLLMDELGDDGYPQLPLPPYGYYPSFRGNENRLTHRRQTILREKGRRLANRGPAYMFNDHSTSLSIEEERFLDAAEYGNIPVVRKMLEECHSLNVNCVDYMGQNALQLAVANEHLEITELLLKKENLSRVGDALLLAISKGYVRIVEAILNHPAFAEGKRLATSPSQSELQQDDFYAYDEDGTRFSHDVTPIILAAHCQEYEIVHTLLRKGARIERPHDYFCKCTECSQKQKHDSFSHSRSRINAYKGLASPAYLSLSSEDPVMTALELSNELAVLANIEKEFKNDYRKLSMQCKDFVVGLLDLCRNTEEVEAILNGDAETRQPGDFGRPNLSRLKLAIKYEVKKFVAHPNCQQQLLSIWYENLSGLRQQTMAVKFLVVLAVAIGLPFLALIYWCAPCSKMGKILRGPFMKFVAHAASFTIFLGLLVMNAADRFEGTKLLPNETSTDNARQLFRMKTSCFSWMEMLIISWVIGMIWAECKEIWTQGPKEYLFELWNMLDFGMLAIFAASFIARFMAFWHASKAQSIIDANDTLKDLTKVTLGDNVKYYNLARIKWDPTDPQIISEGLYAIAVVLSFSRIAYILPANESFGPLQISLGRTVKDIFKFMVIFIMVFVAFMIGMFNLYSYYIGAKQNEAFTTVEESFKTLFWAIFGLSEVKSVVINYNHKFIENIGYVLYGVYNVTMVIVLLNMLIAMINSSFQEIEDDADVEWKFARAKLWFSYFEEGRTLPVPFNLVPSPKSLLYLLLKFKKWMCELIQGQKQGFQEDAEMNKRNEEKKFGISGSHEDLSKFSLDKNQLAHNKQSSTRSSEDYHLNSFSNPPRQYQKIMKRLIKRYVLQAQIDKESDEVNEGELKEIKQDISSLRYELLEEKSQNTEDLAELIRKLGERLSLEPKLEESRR

Question: Which IC50 [1] does the source give for `Cc1ccc2nc(N3CCCCC3)cc(C)c2c1` here?
Answer: 5.49 µM (active)

Question: What about the IC50 [2] of the same molecule?
Answer: 8.58 µM (active)

Question: What about the IC50 [3] of the same molecule?
Answer: 10.2 µM (active)

Question: Which results are given for `Cc1ccc(C(=O)C2=C(O)C(=O)N(Cc3ccco3)C2c2cccc(Cl)c2)o1` (stereo not drawn)?
Answer: CC50 [4]: > 100 µM (inactive); IC50 (NS3): 5.36 µM (active)

Question: Which results are given for `Cc1nn(-c2ccccc2)c(C)c1/C=N/NC(=O)c1cc(-c2ccccc2)[nH]n1`?
Answer: IC50 (CHO-K1): > 66.2 µM (inactive); EC50 [5]: 0.659 µM (inconclusive); IC50 [6]: 1.75 µM (active); IC50 (Orexin receptor type 2 [7]): 18.8 µM (inactive); EC50 (BJ [8]): > 150 µM (inconclusive); EC50 (BJ [9]): 0.308 µM (active); CC50 [10]: 8.77 µM (active); IC50 (Orexin receptor type 2 [11]): 20.6 µM (inactive); EC50 (BJ [12]): 37.5 µM (inconclusive); IC50 [13]: 3.67 µM (active); IC50 [14]: > 49.8 µM (inactive)

Question: For `CC1CCN(c2nc(NCc3ccco3)nc(N)c2[N+](=O)[O-])CC1`, which IC50 (MDCK [15]) is on record?
Answer: 2.57 µM (active)

Question: And the CC50 (Vero)?
Answer: > 40 µM (active)

Question: And the CC50 (MDCK [16])?
Answer: 11.4 µM (active)

Question: For `COc1cc(OC)c(S(=O)(=O)Nc2ccccc2C(=O)O)cc1S(=O)(=O)Nc1ccccc1C(=O)O`, which AC50 (Keap1/Nrf2) is on record?
Answer: > 52 µM (inactive)

Question: With `O=C(C1CC1)N1CCN(c2ccnc3cc(Cl)ccc23)CC1` as the molecule, how does the AC50 (NIH3T3) read?
Answer: 1.7 µM (active)

Question: And the AC50 (Candida albicans [17])?
Answer: 3.25 µM (active)

Question: What about the AC50 (Candida albicans [18]) of the same molecule?
Answer: 12.4 µM (active)
